Experimental data taken from patent publication US11236085B2, “PD-1/PD-L1 inhibitors” (Gilead Sciences, Inc., priority 2018, dated 2022).

Experiments:
PD-1/PD-L1 [1] = biological target: T1, PD-1/PD-L1 (Homo sapiens, UniProt Q9NZQ7); test: PD-1/PD-L1 biochemical protein-protein interaction assay (ALPHA); type: binding; details: 0.3 nM His tagged PD-L1, 2.5 nM biotinylated Fc-PD-1; 60 minutes at 25° C.; read-out: IC50 PD-L1-PD1
Description: PD-1/PD-L1 & CTLA/CD80 Biochemical Protein-Protein Interaction Assay
Compounds were tested in biochemical protein-protein interaction assays to determine if they can specifically block the interaction between the extracellular domains of PD-1/PD-L1 or CTLA/CD80. Binding of the protein pairs is measured using a bead based Amplified Luminescent Proximity Homogeneous Assay (ALPHA) platform. Binding of each protein pair results in proximity of the donor and acceptor beads which leads to an increase in ALPHA signal. Disruption of the protein-protein interaction with a test compound results in a decrease in ALPHA signal. Assays are performed in 25 mM Hepes (pH 7.4), 150 mM NaCl, 3.4 mM EDTA, 0.005% Tween 20, and 0.01% BSA. Final protein concentration in the assays were 0.3 nM (His tagged PD-L1), 2.5 nM (biotinylated Fc-PD-1), 1 nM (His tagged CTLA4) and 1 nM (biotinylated CD80). After an assay reaction time of 60 minutes at 25° C., binding was measured with addition of 20 μg/mL ALPHA assay acceptor beads (anti-His coated) and 20 µg/mL ALPHA assay donor beads (streptavidin coated). IC50 values were calculated from the fit of the dose-response curves to a four-parameter equation. Representative data are shown below in Table 3.
Target sequence in this assay (Q9NZQ7 19-238 limits assumed): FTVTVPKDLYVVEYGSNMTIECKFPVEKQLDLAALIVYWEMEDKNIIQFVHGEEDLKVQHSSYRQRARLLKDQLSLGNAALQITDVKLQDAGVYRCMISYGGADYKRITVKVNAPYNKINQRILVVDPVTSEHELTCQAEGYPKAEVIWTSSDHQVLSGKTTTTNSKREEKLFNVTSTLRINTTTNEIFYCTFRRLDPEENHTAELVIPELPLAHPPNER

PD-L1 = biological target: T2, PD-L1 (Homo sapiens, UniProt Q9NZQ7); test: PD-L1/PD-L1 dimerization biochemical protein-protein interaction assay (ALPHA); details: 0.5 nM His tagged PD-L1 and 0.5 nM FLAG tagged PD-L1; compound induced dimerization; read-out: AC50 PDL1 Dimer 1 nM
T2 construct: determine if they can specifically dimerize the extracellular domains of PD-L1
Description: PD-L1/PD-L1 Dimerization Biochemical Protein-Protein Interaction Assay
Compounds were tested in biochemical protein-protein interaction assays to determine if they can specifically dimerize the extracellular domains of PD-L1. Dimerization of the proteins (His-tagged PD-L1 and FLAG-tagged PD-L1) is measured using a bead based Amplified Luminescent Proximity Homogeneous Assay (ALPHA) platform. […] Assays are performed in 25 mM Hepes (pH 7.4), 150 mM NaCl, 3.4 mM EDTA, 0.005% Tween 20, and 0.01% BSA. Final protein concentration in the assays were 0.5 nM (His tagged PD-L1) and 0.5 nM (FLAG tagged PD-L1). After an assay reaction time of 2 hours at 25° C., 20 μg/mL (final assay concentration) ALPHA assay acceptor beads (anti-His coated) were added and incubated for 60 minutes at 25° C. Binding was measured following a final 60 minute incubation with 40 μg/mL (final assay concentration) ALPHA assay donor beads (anti-FLAG coated). AC50 values were calculated from the fit of the dose-response curves to a four-parameter equation (Table 4).

PD-1/PD-L1 [2] = biological target: T1, PD-1/PD-L1; test: PD-1/PD-L1 NFAT reporter assay (co-culture of aAPC-PD-L1 CHO cells and Jurkat cells overexpressing PD-1, NFAT luciferase); type: cell-based; design: expressed in transfected cells; host or cells: CHO cells (aAPC-PD-L1) co-cultured with Jurkat cells overexpressing PD-1; details: co-culture incubated for 6 hrs at 37° C.; luciferase under NFAT control
Description: PD-1/PD-L1 NFAT Reporter Assay
Compounds were tested in a functional co-culture reporter assay in which TCR-mediated NFAT activity is inhibited by the engagement of PD-1 with PD-L1. […] CHO cells expressing surface-bound anti-CD3 antibodies and PD-L1 (artificial antigen presenting cells, aAPC-PD-L1) were first seeded overnight. Jurkat cells overexpressing PD-1 and expressing a luciferase construct under NFAT control are diluted in RPMI assay medium (RPMI 1640 with 2% FBS), mixed with compounds, and immediately seeded on the monolayer of aAPC-PD-L1. The co-culture is then incubated for 6 hrs at 37° C. Luciferase activity is assessed by adding the ONE-Glo reagent and measuring luminescence with a plate reader. EC50 values are calculated from the fit of the dose-response curves to a four-parameter equation (Table 4).
Target sequence in this assay (Q9NZQ7 19-290): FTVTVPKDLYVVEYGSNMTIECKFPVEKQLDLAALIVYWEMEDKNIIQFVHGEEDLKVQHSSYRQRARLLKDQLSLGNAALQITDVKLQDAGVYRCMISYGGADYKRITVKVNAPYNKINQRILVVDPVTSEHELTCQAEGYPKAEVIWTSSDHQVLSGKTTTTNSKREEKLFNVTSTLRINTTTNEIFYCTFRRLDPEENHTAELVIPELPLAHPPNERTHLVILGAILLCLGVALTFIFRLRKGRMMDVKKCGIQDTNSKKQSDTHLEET

T2 sequence (Q9NZQ7 19-238 limits assumed): as the sequence (Q9NZQ7 19-238 limits assumed) above
T2 sequence (Q9NZQ7 19-238 limits assumed): as above

Structure (SMILES): COc1nc(O[C@H]2CCc3c(-c4cccc(-c5ccc6c(n5)CCNC6)c4Cl)cccc32)c(C(F)(F)F)cc1CN1CC[C@@H](C(=O)O)C1 [Compound 1, (R)-1-((6-(((S)-4-(2-chloro-3-(5,6,7,8-tetrahydro-1,6-naphthyridin-2-yl)phenyl)-2,3-dihydro-1H-inden-1-yl)oxy)-2-methoxy-5-(trifluoromethyl)pyridin-3-yl)methyl)pyrrolidine-3-carboxylic acid]
- IC50 (PD-1/PD-L1 [1]): 0.064 nM
- AC50 (PD-L1): 135 nM
- EC50 (PD-1/PD-L1 [2]): 1260 nM

Structure (SMILES): COc1nc(O[C@H]2CCc3c(-c4cccc(-c5nc6c(s5)CCNC6)c4Cl)cccc32)c(C(F)(F)F)cc1CN1CC[C@@H](C(=O)O)C1 [Compound 2, (R)-1-((6-(((S)-4-(2-chloro-3-(4,5,6,7-tetrahydrothiazolo[4,5-c]pyridin-2-yl)phenyl)-2,3-dihydro-1H-inden-1-yl)oxy)-2-methoxy-5-(trifluoromethyl)pyridin-3-yl)methyl)pyrrolidine-3-carboxylic acid]
- IC50 (PD-1/PD-L1 [1]): 0.064 nM
- AC50 (PD-L1): 23 nM
- EC50 (PD-1/PD-L1 [2]): 3250 nM

Structure (SMILES): Cc1c(COc2cc(OCc3cncc(C#N)c3)c(CN[C@@](C)(CO)C(=O)O)cc2Cl)cccc1-c1cccc(-c2ccc3c(c2)CNCC3O)c1C (stereo partly drawn) [Compound 3]
- IC50 (PD-1/PD-L1 [1]): 0.064 nM
- AC50 (PD-L1): 76.9 nM
- EC50 (PD-1/PD-L1 [2]): 123 nM

Structure (SMILES): Cc1c(COc2cc(OCc3cncc(C#N)c3)c(CN[C@@](C)(CO)C(=O)O)cc2Cl)cccc1-c1cccc(-c2ccc3c(c2)NCCNC3)c1C [Compound 4]
- IC50 (PD-1/PD-L1 [1]): 0.064 nM
- AC50 (PD-L1): 86.5 nM
- EC50 (PD-1/PD-L1 [2]): 90 nM

Structure (SMILES): Cc1c(COc2cc(OCc3cncc(C#N)c3)c(CN[C@@](C)(CO)C(=O)O)cc2Cl)cccc1-c1cccc(-c2ccc3c(c2)CNCC3)c1C [Compound 5]
- IC50 (PD-1/PD-L1 [1]): 0.136 nM
- AC50 (PD-L1): 57 nM
- EC50 (PD-1/PD-L1 [2]): 134 nM

Structure (SMILES): COc1nc(-c2cccc(-c3cccc(-c4ccc5c(c4)OCCNC5)c3Cl)c2Cl)ccc1CNC[C@@H](O)CC(=O)O [Compound 6]
- IC50 (PD-1/PD-L1 [1]): 0.427 nM
- AC50 (PD-L1): 301 nM
- EC50 (PD-1/PD-L1 [2]): 170 nM

Structure (SMILES): Cc1c(COc2cc(OCc3cc(Cl)cc(C#N)c3)c(CN[C@@](C)(CO)C(=O)O)cc2Cl)cccc1-c1cccc(-c2ccc3c(c2)CNCC3)c1C [Compound 7]
- IC50 (PD-1/PD-L1 [1]): 0.955 nM
- AC50 (PD-L1): 75 nM
- EC50 (PD-1/PD-L1 [2]): 142 nM

Structure (SMILES): Cc1c(COc2cc(OCc3cc(C#N)cc(C#N)c3)c(CN[C@@](C)(CO)C(=O)O)cc2Cl)cccc1-c1cccc(-c2ccc3c(c2)CNCC3)c1C [Compound 8]
- IC50 (PD-1/PD-L1 [1]): 0.293 nM
- AC50 (PD-L1): 42.9 nM
- EC50 (PD-1/PD-L1 [2]): 90 nM

Structure (SMILES): Cc1c(COc2cc(OCCCC#N)c(CN[C@@](C)(CO)C(=O)O)cc2Cl)cccc1-c1cccc(-c2ccc3c(c2)CNCC3)c1C [Compound 9]
- IC50 (PD-1/PD-L1 [1]): 0.126 nM
- AC50 (PD-L1): 63.8 nM
- EC50 (PD-1/PD-L1 [2]): 173 nM

Structure (SMILES): Cc1c(COc2cc(OCc3cncc(C#N)c3)c(CN[C@@](C)(CO)C(=O)O)cc2Cl)cccc1-c1cccc(-c2ccc3c(c2)NC(=O)CNC3)c1C [Compound 10]
- IC50 (PD-1/PD-L1 [1]): 0.187 nM
- AC50 (PD-L1): 249 nM
- EC50 (PD-1/PD-L1 [2]): 103 nM

Structure (SMILES): Cc1c(COc2cc(OCc3cncc(C#N)c3)c(CNC[C@@H](O)CC(=O)O)cc2Cl)cccc1-c1cccc(-c2ccc3c(c2)NC(=O)CNC3)c1C [Compound 11]
- IC50 (PD-1/PD-L1 [1]): 0.686 nM
- AC50 (PD-L1): 599 nM
- EC50 (PD-1/PD-L1 [2]): 178 nM

Structure (SMILES): CNC(=O)NC1CNCc2cc(-c3cccc(-c4cccc(-c5ccc(CNC[C@@H]6CCC(=O)N6)c(OC)n5)c4Cl)c3Cl)ccc21 (stereo partly drawn) [Compound 12]
- IC50 (PD-1/PD-L1 [1]): 0.17 nM
- AC50 (PD-L1): 55.3 nM
- EC50 (PD-1/PD-L1 [2]): 165 nM

Structure (SMILES): Cc1c(COc2cc(OCc3cncc(C#N)c3)c(CNC[C@@H](O)CC(=O)O)cc2Cl)cccc1-c1cccc(-c2ccc3c(c2)CNCC3NC(=O)NC2CC2)c1C (stereo partly drawn) [Compound 13]
- IC50 (PD-1/PD-L1 [1]): 0.147 nM
- AC50 (PD-L1): 26.9 nM
- EC50 (PD-1/PD-L1 [2]): 90 nM

Structure (SMILES): Cc1c(COc2cc(OCc3cncc(C#N)c3)c(CN[C@@](C)(CO)C(=O)O)cc2Cl)cccc1-c1cccc(-c2ccc3c(c2)CNCC3NC(=O)NC2CC2)c1C (stereo partly drawn) [Compound 14]
- IC50 (PD-1/PD-L1 [1]): 0.064 nM
- AC50 (PD-L1): 10.7 nM
- EC50 (PD-1/PD-L1 [2]): 69 nM

Structure (SMILES): CNC(=O)N[C@@H]1CNCc2cc(-c3cccc(-c4cccc(COc5cc(OCc6cncc(C#N)c6)c(CN[C@@](C)(CO)C(=O)O)cc5Cl)c4C)c3C)ccc21 [Compound 15]
- IC50 (PD-1/PD-L1 [1]): 0.064 nM
- AC50 (PD-L1): 7.47 nM
- EC50 (PD-1/PD-L1 [2]): 59 nM

Structure (SMILES): Cc1c(COc2cc(OCc3cncc(C#N)c3)c(CN[C@@](C)(CO)C(=O)O)cc2Cl)cccc1-c1cccc(-c2ccc3c(c2)CNCC3NC(=O)NCC#N)c1C (stereo partly drawn) [Compound 16]
- IC50 (PD-1/PD-L1 [1]): 0.09 nM
- AC50 (PD-L1): 30.9 nM
- EC50 (PD-1/PD-L1 [2]): 102 nM

Structure (SMILES): Cc1c(COc2cc(OCc3cncc(C#N)c3)c(CNC[C@@H](O)CC(=O)O)cc2Cl)cccc1-c1cccc(-c2ccc3c(c2)CNCC3NC(=O)NCC#N)c1C (stereo partly drawn) [Compound 17]
- IC50 (PD-1/PD-L1 [1]): 0.174 nM
- AC50 (PD-L1): 31.6 nM
- EC50 (PD-1/PD-L1 [2]): 128 nM

Structure (SMILES): Cc1c(COc2cc(OCc3cncc(C#N)c3)c(CN[C@@](C)(CO)C(=O)O)cc2Cl)cccc1-c1cccc(-c2ccc3c(c2)CNCC3N)c1C (stereo partly drawn) [Compound 18]
- IC50 (PD-1/PD-L1 [1]): 0.158 nM
- AC50 (PD-L1): 54.9 nM
- EC50 (PD-1/PD-L1 [2]): 73 nM

Structure (SMILES): CNC(=O)NC1CNCc2cc(-c3cccc(-c4cccc(COc5cc(OCc6cncc(C#N)c6)c(CNC[C@@H](O)CC(=O)O)cc5Cl)c4C)c3C)ccc21 (stereo partly drawn) [Compound 20]
- IC50 (PD-1/PD-L1 [1]): 0.064 nM
- AC50 (PD-L1): 20.8 nM
- EC50 (PD-1/PD-L1 [2]): 95 nM

Structure (SMILES): C[C@](CO)(NCc1cc(Br)c(OCc2cccc(-c3cccc(-c4ccc5c(c4)CNCC5)c3Cl)c2Cl)nc1OCc1cncc(C#N)c1)C(=O)O [Compound 21]
- IC50 (PD-1/PD-L1 [1]): 0.23 nM
- AC50 (PD-L1): 28.3 nM
- EC50 (PD-1/PD-L1 [2]): 166 nM

Structure (SMILES): C[C@@](CO)(NCc1cc(Br)c(OCc2cccc(-c3cccc(-c4ccc5c(c4)CNCC5)c3Cl)c2Cl)nc1OCc1cncc(C#N)c1)C(=O)O [Compound 22]
- IC50 (PD-1/PD-L1 [1]): 0.151 nM
- AC50 (PD-L1): 37.7 nM
- EC50 (PD-1/PD-L1 [2]): 87 nM

Structure (SMILES): COc1nc(-c2cccc(-c3cccc(-c4cc5c(cn4)CNC5)c3Cl)c2Cl)ccc1CNC[C@@H]1CCC(=O)N1 [Compound 23]
- IC50 (PD-1/PD-L1 [1]): 0.318 nM
- AC50 (PD-L1): 272 nM
- EC50 (PD-1/PD-L1 [2]): 202 nM

Structure (SMILES): Cc1c(COc2cc(OCc3cncc(C#N)c3)c(CN[C@@](C)(CO)C(=O)O)cc2Cl)cccc1-c1cccc(-c2ccc3c(c2)C2CCC(C3)N2)c1C (stereo partly drawn) [Compound 24]
- IC50 (PD-1/PD-L1 [1]): 0.086 nM
- AC50 (PD-L1): 41.3 nM
- EC50 (PD-1/PD-L1 [2]): 184 nM

Structure (SMILES): Cc1c(COc2nc(OCc3cncc(C#N)c3)c(CN[C@@](C)(CO)C(=O)O)cc2Cl)cccc1-c1cccc(-c2ccc3c(c2)CNC(COC(=O)NCCO)C3)c1C (stereo partly drawn) [Compound 25]
- IC50 (PD-1/PD-L1 [1]): 0.064 nM
- AC50 (PD-L1): 53.5 nM
- EC50 (PD-1/PD-L1 [2]): 108 nM

Structure (SMILES): CC(=O)NCC1Cc2ccc(-c3cccc(-c4cccc(COc5cc(OCc6cncc(C#N)c6)c(CN[C@@](C)(CO)C(=O)O)cc5Cl)c4C)c3C)cc2CN1 (stereo partly drawn) [Compound 26]
- IC50 (PD-1/PD-L1 [1]): 0.064 nM
- AC50 (PD-L1): 48.9 nM
- EC50 (PD-1/PD-L1 [2]): 174 nM
